# “And” between values parts separate entries of the source, which are not always exact repeats. Equal values may be shown once. Toxic doses and inconclusive results are not listed.
# System: CD2F1 mice, L1210 leukemia ip, survival T/C
# Test: NCI In Vivo Anticancer Drug Screen. Data for tumor model L1210 Leukemia (intraperitoneal) in CD2F1 (CDF1) mice
# Conditions: higher = longer survival
# How it was run: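 In this screen, transplantable tumors were grown in mice given either the compound or its vehicle. Results were expressed as the treated measurement relative to the control measurement.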
# [1] = endpoint: mean survival time, dose: 50.0 mg/kg/injection, schedule: Q04DX002 (ip), vehicle: saline with Tween-80
# [2] = endpoint: mean survival time, dose: 100.0 mg/kg/injection, schedule: Q01DX001 (ip), vehicle: saline with Tween-80
# [3] = endpoint: mean survival time, dose: 100.0 mg/kg/injection, schedule: Q01DX009 (ip), vehicle: saline with Tween-80
# [4] = endpoint: mean survival time, dose: 100.0 mg/kg/injection, schedule: Q04DX002 (ip), vehicle: saline with Tween-80
# [5] = endpoint: mean survival time, dose: 100.0 mg/kg/injection, schedule: Q04DX003 (ip), vehicle: saline with Tween-80
# [6] = endpoint: mean survival time, dose: 200.0 mg/kg/injection, schedule: Q01DX001 (ip), vehicle: saline with Tween-80
# [7] = endpoint: mean survival time, dose: 200.0 mg/kg/injection, schedule: Q01DX009 (ip), vehicle: saline with Tween-80
# [8] = endpoint: mean survival time, dose: 200.0 mg/kg/injection, schedule: Q04DX003 (ip), vehicle: saline with Tween-80
# [9] = endpoint: mean survival time, dose: 400.0 mg/kg/injection, schedule: Q01DX001 (ip), vehicle: saline with Tween-80
# [10] = endpoint: mean survival time, dose: 25.0 mg/kg/injection, schedule: Q04DX002 (ip), vehicle: saline with Tween-80
smiles,measurement,setting,value
C1CCC(C2CCCC[N-]2)[N-]C1.[Cl][Pt].[NH-]CC(=O)O (stereo not drawn),T/C,"endpoint: median survival time, dose: 10.0 mg/kg/injection, schedule: Q04DX003 (ip), vehicle: saline",101 % of control
same,T/C,"endpoint: median survival time, dose: 20.0 mg/kg/injection, schedule: Q04DX003 (ip), vehicle: saline",105 % of control
same,T/C,"endpoint: median survival time, dose: 40.0 mg/kg/injection, schedule: Q04DX003 (ip), vehicle: saline",98 % of control
same,T/C,"endpoint: median survival time, dose: 80.0 mg/kg/injection, schedule: Q04DX003 (ip), vehicle: saline",95 % of control and 96 % of control
same,T/C,"endpoint: median survival time, dose: 160.0 mg/kg/injection, schedule: Q04DX003 (ip), vehicle: saline",90 % of control
same,T/C,"endpoint: median survival time, dose: 320.0 mg/kg/injection, schedule: Q04DX003 (ip), vehicle: saline",101 % of control
O=C1c2ccccc2C(=O)N1CCS(=O)(=O)Cl,T/C,"endpoint: mean survival time, dose: 50.0 mg/kg/injection, schedule: Q01DX001 (ip), vehicle: saline with Tween-80",100 % of control
same,T/C,"endpoint: mean survival time, dose: 50.0 mg/kg/injection, schedule: Q01DX009 (ip), vehicle: saline with Tween-80",95 % of control and 101 % of control
same,T/C,[1],97 % of control and 108 % of control
same,T/C,"endpoint: mean survival time, dose: 50.0 mg/kg/injection, schedule: Q04DX003 (ip), vehicle: saline with Tween-80",98 % of control
same,T/C,[2],97 % of control
same,T/C,[3],96 % of control and 101 % of control
same,T/C,[4],96 % of control and 100 % of control
same,T/C,[5],98 % of control
same,T/C,[6],98 % of control
same,T/C,[7],93 % of control
same,T/C,"endpoint: mean survival time, dose: 200.0 mg/kg/injection, schedule: Q04DX002 (ip), vehicle: saline with Tween-80",100 % of control and 101 % of control
same,T/C,[8],101 % of control
CC([NH-])CC[NH-].O=C(O)C(=O)O.[Pt+2] (stereo not drawn),T/C,"endpoint: mean survival time, dose: 3.12 mg/kg/injection, schedule: Q04DX003 (ip), vehicle: saline with Tween-80",152 % of control
same,T/C,"endpoint: mean survival time, dose: 6.25 mg/kg/injection, schedule: Q04DX003 (ip), vehicle: saline with Tween-80",235 % of control
same,T/C,"endpoint: mean survival time, dose: 12.5 mg/kg/injection, schedule: Q04DX003 (ip), vehicle: saline with Tween-80",265 % of control
C[C@]12CC[C@H](OC(=O)Cc3ccc(N(CCCl)CCCl)cc3)CC1=CC[C@@H]1[C@@H]2CC[C@]2(C)C(=O)CC[C@@H]12,T/C,[2],92 % of control
same,T/C,[3],100 % of control
same,T/C,[6],90 % of control
same,T/C,[7],107 % of control
same,T/C,[9],96 % of control
same,T/C,"endpoint: mean survival time, dose: 400.0 mg/kg/injection, schedule: Q01DX009 (ip), vehicle: saline with Tween-80",111 % of control
c1ccc(-c2ccc(C3=NN(c4ccccc4)C(c4ccccc4)C3NC3CCCCC3)cc2)cc1 (stereo not drawn),T/C,"endpoint: mean survival time, dose: 12.5 mg/kg/injection, schedule: Q01DX009 (ip), vehicle: other",100 % of control
same,T/C,"endpoint: mean survival time, dose: 25.0 mg/kg/injection, schedule: Q01DX009 (ip), vehicle: other",104 % of control
same,T/C,"endpoint: mean survival time, dose: 50.0 mg/kg/injection, schedule: Q01DX009 (ip), vehicle: other",98 % of control
same,T/C,"endpoint: mean survival time, dose: 100.0 mg/kg/injection, schedule: Q01DX009 (ip), vehicle: other",106 % of control
same,T/C,"endpoint: mean survival time, dose: 200.0 mg/kg/injection, schedule: Q01DX009 (ip), vehicle: other",98 % of control
COc1cccc2c1C(=O)c1c(O)c3c(c(O)c1C2=O)C[C@@](O)(/C(C)=N/NC(=O)c1cccc([N+](=O)[O-])c1)C[C@@H]3OC1CC(N)C(O)C(C)O1 (stereo partly drawn),T/C,"endpoint: mean survival time, dose: 2.0 mg/kg/injection, schedule: Q01DX009 (ip), vehicle: water",121 % of control
same,T/C,"endpoint: mean survival time, dose: 4.0 mg/kg/injection, schedule: Q01DX009 (ip), vehicle: water",121 % of control
same,T/C,"endpoint: mean survival time, dose: 16.0 mg/kg/injection, schedule: Q01DX009 (ip), vehicle: water",98 % of control
COc1ccc2c(c1O)C1CCCCC13CCN(C)C3C2 (stereo not drawn),T/C,[10],96 % of control
same,T/C,[1],96 % of control
same,T/C,[2],110 % of control
same,T/C,[4],93 % of control and 97 % of control
same,T/C,[6],98 % of control
same,T/C,[9],100 % of control
CCCCOS(=O)(=O)c1ccc(N)cc1,T/C,[5],92 % of control
same,T/C,[8],98 % of control
same,T/C,"endpoint: mean survival time, dose: 400.0 mg/kg/injection, schedule: Q04DX003 (ip), vehicle: saline with Tween-80",97 % of control
CC(=O)Nc1nnn(C)n1,T/C,"endpoint: mean survival time, dose: 100.0 mg/kg/injection, schedule: Q04DX003 (ip), vehicle: saline",103 % of control
same,T/C,"endpoint: mean survival time, dose: 200.0 mg/kg/injection, schedule: Q04DX003 (ip), vehicle: saline",100 % of control
same,T/C,"endpoint: mean survival time, dose: 400.0 mg/kg/injection, schedule: Q04DX003 (ip), vehicle: saline",101 % of control
O=C(O)c1ccccc1C(=O)N1CCCCC1,T/C,"endpoint: mean survival time, dose: 12.5 mg/kg/injection, schedule: Q04DX002 (ip), vehicle: saline with Tween-80",94 % of control
same,T/C,[10],90 % of control
same,T/C,[1],110 % of control
CCOC(=O)C12CCCCC1=CC1(CC2)SCCS1 (stereo not drawn),T/C,"endpoint: mean survival time, dose: 100.0 mg/kg/injection, schedule: Q04DX003 (ip), vehicle: acetone",93 % of control
same,T/C,"endpoint: mean survival time, dose: 200.0 mg/kg/injection, schedule: Q04DX003 (ip), vehicle: acetone",91 % of control
same,T/C,"endpoint: mean survival time, dose: 400.0 mg/kg/injection, schedule: Q04DX003 (ip), vehicle: acetone",86 % of control

# Source: PubChem BioAssay AID256 (DTP/NCI, 2004)
